Here are results for 14 molecules from patent publication US8859569B2, “Substituted annellated pyrimidines and use thereof” (Bayer Pharma Aktiengesellschaft, priority 2011, dated 2014).

For assay [1], the system named is aorta rings. The assay is described as follows: Vessel-relaxing action in vitro (aorta rings, phenylephrine contraction). As to conditions: Oryctolagus cuniculus, concentration required to reduce phenylephrine-induced contraction of rabbit aorta rings by 50%. The protocol: B-1. Vessel-relaxing Action in vitro
Rabbits are stunned with a blow on the back of the neck and exsanguinated. The aorta is removed, freed from adhering tissue, separated into rings with a width of 1.5 mm, and placed individually, with preloading, in 5-ml organ baths with carbogen-gassed Krebs-Henseleit solution at 37° C. with the following composition (mM in each case): sodium chloride: 119; potassium chloride: 4.8; calcium chloride dihydrate: 1; magnesium sulphate heptahydrate: 1.4; potassium dihydrogen phosphate: 1.2; sodium hydrogen carbonate: 25; glucose: 10. The contraction force is recorded with Statham UC2 cells, amplified and digitized via an A/D converter (DAS-1802 HC, Keithley Instruments Munich) and recorded in parallel on a continuous-line recorder. To produce contraction, phenylephrine is added to the bath cumulatively in increasing concentration. After several control cycles, the test substance is added in increasing dosage in each subsequent pass and the level of contraction is compared with the level of contraction reached in the immediately preceding pass. This is used for calculating the concentration that is required to reduce the level of the control value by 50% (IC50 value). The standard application volume is 5 μl, and the proportion of DMSO in the bath solution corresponds to 0.1%.

For assay [2], the target named is T1, recombinant guanylate cyclase reporter cell line (Rattus norvegicus, UniProt P19686+P20595).
T1 construct: expressed in transfected cells
T1 sequence (P20595 1-619): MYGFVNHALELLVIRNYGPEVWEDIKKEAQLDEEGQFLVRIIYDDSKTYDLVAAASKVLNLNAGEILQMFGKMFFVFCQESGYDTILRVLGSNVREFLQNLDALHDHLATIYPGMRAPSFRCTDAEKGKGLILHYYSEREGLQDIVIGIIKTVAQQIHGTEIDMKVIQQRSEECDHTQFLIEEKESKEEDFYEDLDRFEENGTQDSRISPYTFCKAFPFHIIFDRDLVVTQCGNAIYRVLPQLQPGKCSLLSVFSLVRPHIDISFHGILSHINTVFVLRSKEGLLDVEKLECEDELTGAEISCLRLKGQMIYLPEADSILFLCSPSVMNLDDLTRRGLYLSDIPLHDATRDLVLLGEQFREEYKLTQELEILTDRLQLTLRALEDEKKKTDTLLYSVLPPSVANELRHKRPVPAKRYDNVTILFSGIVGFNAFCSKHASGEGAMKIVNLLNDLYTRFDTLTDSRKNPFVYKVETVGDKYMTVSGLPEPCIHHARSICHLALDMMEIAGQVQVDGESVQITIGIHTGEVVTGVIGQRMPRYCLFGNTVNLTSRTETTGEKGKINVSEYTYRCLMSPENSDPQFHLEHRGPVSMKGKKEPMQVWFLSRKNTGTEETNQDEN
T1 sequence (P19686 1-690): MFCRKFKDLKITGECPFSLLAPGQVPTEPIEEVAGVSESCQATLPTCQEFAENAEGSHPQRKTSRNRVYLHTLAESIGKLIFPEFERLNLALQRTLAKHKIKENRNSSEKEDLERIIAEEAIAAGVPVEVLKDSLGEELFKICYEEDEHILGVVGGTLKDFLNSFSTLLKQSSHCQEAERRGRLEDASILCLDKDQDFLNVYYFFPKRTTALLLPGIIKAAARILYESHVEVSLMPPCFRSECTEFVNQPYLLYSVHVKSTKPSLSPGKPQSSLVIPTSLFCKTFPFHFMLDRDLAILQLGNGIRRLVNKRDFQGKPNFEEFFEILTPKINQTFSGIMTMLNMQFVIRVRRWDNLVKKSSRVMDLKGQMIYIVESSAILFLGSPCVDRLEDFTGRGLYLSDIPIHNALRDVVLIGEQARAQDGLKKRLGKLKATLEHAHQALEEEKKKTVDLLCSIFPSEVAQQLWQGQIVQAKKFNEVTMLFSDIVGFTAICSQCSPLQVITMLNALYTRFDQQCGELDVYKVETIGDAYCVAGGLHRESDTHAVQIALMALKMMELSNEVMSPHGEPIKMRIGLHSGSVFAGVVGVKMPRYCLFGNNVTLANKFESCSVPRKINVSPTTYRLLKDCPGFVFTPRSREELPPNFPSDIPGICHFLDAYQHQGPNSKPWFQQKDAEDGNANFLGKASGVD
In words: Action on recombinant guanylate cyclase reporter cell line. It is filed as cell-based. How it is done:
B-2. Action on Recombinant Guanylate Cyclase Reporter Cell Line
The cellular action of the compounds according to the invention is determined on a recombinant guanylate cyclase reporter cell line, as described in F. Wunder et al., Anal. Biochem. 339, 104-112 (2005).

Assay [3] addresses T2, human phosphodiesterase 5 (PDE-5) (Homo sapiens, UniProt O76074).
T2 construct: PDE-5 preparations are obtained from human platelets by lysis; from tissue; host or cells: human platelets
In words: Inhibition of human phosphodiesterase 5 (PDE-5), SPA assay. The assay is classed as biochemical. Conditions: PDE-5 preparation from human platelets, [8-3H]cGMP substrate. In short, it runs like this:
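PDE-5 partially purified from human platelets by Mono Q chromatography, diluted so under 70% of [8-3H]cGMP (0.025 μCi) converted. Compounds at 4 μM to 0.0018 μM final, Tris-HCl pH 7.5 with MgCl2, 60 min at room temperature. Yttrium SPA beads stop reaction; IC50 from concentration–inhibition plots.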

As to `CC1(C)C(=O)Nc2nc(-c3nn(Cc4ccccc4F)c4c3CCC4)nc(NCCC(F)(F)F)c21` [Example 20, 2-[1-(2-Fluorobenzyl)-1,4,5,6-tetrahydrocyclopenta[c]pyrazol-3-yl]-5,5-dimethyl-4-[(3,3,3-trifluoropropyl)amino]-5,7-dihydro-6H-pyrrolo[2,3-d]pyrimidin-6-one], the IC50 in assay [1] turned out to be 1870 nM; in assay [3] it was 900 nM. In assay [2], the “MEC (minimal effective concentration)” value amounted to 0.3 μm.

As to `CCN1CCN(c2nc(-c3nn(Cc4ccccc4F)c4ncccc34)nc3c2C(C)(C)C(=O)N3)C1=O` [Example 21, 4-(3-Ethyl-2-oxoimidazolidin-1-yl)-2-[1-(2-fluorobenzyl)-1H-pyrazolo[3,4-b]pyridin-3-yl]-5,5-dimethyl-5,7-dihydro-6H-pyrrolo[2,3-d]pyrimidin-6-one], the figures for the IC50 in assay [1] and in assay [3] were 100 nM and 400 nM, respectively. In assay [2], the “MEC (minimal effective concentration)” value was 0.03 μm.

Take `CC1(C)C(=O)Nc2nc(-n3nc(Cc4ccccc4F)c4ccccc43)nc(O)c21` [Example 22, 2-[3-(2-Fluorobenzyl)-1H-indazol-1-yl]-4-hydroxy-5,5-dimethyl-5,7-dihydro-6H-pyrrolo[2,3-d]pyrimidin-6-one]: the IC50 in assay [1] was found to be 530 nM; in assay [3] it was 580 nM. In assay [2], the “MEC (minimal effective concentration)” value worked out at 0.03 μm.

In the case of `Cc1cc(C)n(-c2nc(-c3nn(Cc4ccccc4F)c4ncccc34)nc3c2C(C)(C)C(=O)N3)n1` [Example 23, 4-(3,5-Dimethyl-1H-pyrazol-1-yl)-2-[1-(2-fluorobenzyl)-1H-pyrazolo[3,4-b]pyridin-3-yl]-5,5-dimethyl-5,7-dihydro-6H-pyrrolo[2,3-d]pyrimidin-6-one], the IC50 in assay [1] worked out at 2860 nM; in assay [3], 1600 nM. Besides, in assay [2], the “MEC (minimal effective concentration)” value was 0.1 μm.

For the molecule `CC1(C)C(=O)Nc2nc(-c3nn(Cc4ccccc4F)c4ncccc34)nc(-n3cccc(F)c3=O)c21` [Example 24, 2-[1-(2-Fluorobenzyl)-1H-pyrazolo[3,4-b]pyridin-3-yl]-4-(3-fluoro-2-oxopyridin-1(2H)-yl)-5,5-dimethyl-5,7-dihydro-6H-pyrrolo[2,3-d]pyrimidin-6-one], the IC50 in assay [1] worked out at 573 nM; in assay [3] it was 100 nM. In addition, the “MEC (minimal effective concentration)” value in assay [2] turned out to be 0.1 μm.

Take `CC1(C)C(=O)Nc2nc(-c3nn(Cc4ccccc4F)c4ncccc34)nc(N3CC(C(F)(F)F)CC3=O)c21` (stereo not drawn) [Example 25, 2-[1-(2-Fluorobenzyl)-1H-pyrazolo[3,4-b]pyridin-3-yl]-5,5-dimethyl-4-[2-oxo-4-(trifluoromethyl)pyrrolidin-1-yl]-5,7-dihydro-6H-pyrrolo[2,3-d]pyrimidin-6-one]: the IC50 in assay [1] worked out at 501 nM; in assay [3] it was 320 nM. Further, the “MEC (minimal effective concentration)” value in assay [2] came out at 0.1 μm.

Consider `CC1(C)C(=O)Nc2nc(-c3nn(Cc4ccccc4F)c4ncccc34)nc(-n3cc(O)cn3)c21` [Example 26, 2-[1-(2-Fluorobenzyl)-1H-pyrazolo[3,4-b]pyridin-3-yl]-4-(4-hydroxy-1H-pyrazol-1-yl)-5,5-dimethyl-5,7-dihydro-6H-pyrrolo[2,3-d]pyrimidin-6-one], for which the IC50 was found to be 674 nM in assay [1] and 12 nM in assay [3]. Further, the “MEC (minimal effective concentration)” value in assay [2] was found to be 0.03 μm.

On to `CC1(C)C(=O)Nc2nc(-c3nn(Cc4ccccc4F)c4ncccc34)nc(Oc3cn[nH]c3)c21` [Example 27, 2-[1-(2-Fluorobenzyl)-1H-pyrazolo[3,4-b]pyridin-3-yl]-5,5-dimethyl-4-(1H-pyrazol-4-yloxy)-5,7-dihydro-6H-pyrrolo[2,3-d]pyrimidin-6-one], for which the IC50 in assay [1] is 1470 nM; in assay [3] it was 4 nM. In addition, the “MEC (minimal effective concentration)” value in assay [2] amounted to 0.1 μm.

In the case of `CC(O)c1ccn(-c2nc(-c3nn(Cc4ccccc4F)c4ncccc34)nc3c2C(C)(C)C(=O)N3)n1` (stereo not drawn) [Example 28, 2-[1-(2-Fluorobenzyl)-1H-pyrazolo[3,4-b]pyridin-3-yl]-4-[3-(1-hydroxyethyl)-1H-pyrazol-1-yl]-5,5-dimethyl-5,7-dihydro-6H-pyrrolo[2,3-d]pyrimidin-6-one], the IC50 in assay [1] came out at 98 nM; in assay [3], 110 nM. Further, the “MEC (minimal effective concentration)” value in assay [2] was 0.3 μm.

For the molecule `CC1(C)C(=O)Nc2nc(-c3nn(Cc4ccccc4F)c4ncccc34)nc(-n3cc(C(F)(F)F)cn3)c21` [Example 29, 2-[1-(2-Fluorobenzyl)-1H-pyrazolo[3,4-b]pyridin-3-yl]-5,5-dimethyl-4-[4-(trifluoromethyl)-1H-pyrazol-1-yl]-5,7-dihydro-6H-pyrrolo[2,3-d]pyrimidin-6-one], the half-inhibitory concentration (IC50) in assay [1] is 11400 nM; in assay [3] it was above 4000 nM. Further, the “MEC (minimal effective concentration)” value in assay [2] is reported as 1.0 μm.

Take `CC1(C)C(=O)Nc2nc(-c3nn(Cc4ccccc4F)c4ncccc34)nc(-n3ccc(C(F)(F)F)n3)c21` [Example 30, 2-[1-(2-Fluorobenzyl)-1H-pyrazolo[3,4-b]pyridin-3-yl]-5,5-dimethyl-4-[3-(trifluoromethyl)-1H-pyrazol-1-yl]-5,7-dihydro-6H-pyrrolo[2,3-d]pyrimidin-6-one]: the results for the IC50 in assay [1] and in assay [3] were above 10000 nM and above 4000 nM, respectively. Besides, the “MEC (minimal effective concentration)” value in assay [2] came to 1.0 μm.

In the case of `CC1(C)C(=O)Nc2nc(-n3nc(Cc4ccccc4F)c4cc(F)ccc43)nc(O)c21` [Example 31, 2-[5-Fluoro-3-(2-fluorobenzyl)-1H-indazol-1-yl]-4-hydroxy-5,5-dimethyl-5,7-dihydro-6H-pyrrolo[2,3-d]pyrimidin-6-one], the 50% inhibitory concentration (IC50) in assay [1] amounted to 142 nM; in assay [3], 500 nM. Besides, the “MEC (minimal effective concentration)” value in assay [2] turned out to be 0.01 μm.

Turning to `CC1(C)C(=O)Nc2nc(-c3nn(Cc4ccccc4F)c4ncccc34)nc(N3CCOC(C(F)(F)F)C3)c21` (stereo not drawn) [Example 32, 2-[1-(2-Fluorobenzyl)-1H-pyrazolo[3,4-b]pyridin-3-yl]-5,5-dimethyl-4-[2-(trifluoromethyl)morpholin-4-yl]-5,7-dihydro-6H-pyrrolo[2,3-d]pyrimidin-6-one], the values for the IC50 in assay [1] and in assay [3] were 9160 nM and 720 nM, respectively. Moreover, the “MEC (minimal effective concentration)” value in assay [2] is reported as 1.0 μm.

For the molecule `CC1(C)C(=O)Nc2nc(-c3nn(Cc4ccccc4F)c4ncccc34)nc(N3CCC(C(F)(F)F)C3)c21` (stereo not drawn) [Example 33, 2-[1-(2-Fluorobenzyl)-1H-pyrazolo[3,4-b]pyridin-3-yl]-5,5-dimethyl-4-[3-(trifluoromethyl)pyrrolidin-1-yl]-5,7-dihydro-6H-pyrrolo[2,3-d]pyrimidin-6-one], the IC50 in assay [1] was 696 nM; in assay [3], 570 nM. Also, the “MEC (minimal effective concentration)” value in assay [2] came to 0.3 μm.

For orientation: IC50 means the concentration needed to halve the response being measured. Low values mean higher potency, high ones lower potency.
